Source: patent US5054434A, “Suppression of ammonia odors from animal wastes” (W. R. Grace & Co.-Conn., priority 1989, dated 1991)
Counter-ions that a name gives are not always drawn.

Legend:
[1] = molecular target: jack bean urease (Canavalia ensiformis, UniProt P07374); assay: Ammonia accumulation from synthetic urine with urease on treated bedding; assay type: biochemical; conditions: for ammonia smell in capped bottle: 12 mg acid, 15 g synthetic urine with 200 units urease, 37.5° C., after 4 hr; for control of accumulation of ammonia: procedure of Example 1
Sequence of jack bean urease (P07374 whole entry, looked up): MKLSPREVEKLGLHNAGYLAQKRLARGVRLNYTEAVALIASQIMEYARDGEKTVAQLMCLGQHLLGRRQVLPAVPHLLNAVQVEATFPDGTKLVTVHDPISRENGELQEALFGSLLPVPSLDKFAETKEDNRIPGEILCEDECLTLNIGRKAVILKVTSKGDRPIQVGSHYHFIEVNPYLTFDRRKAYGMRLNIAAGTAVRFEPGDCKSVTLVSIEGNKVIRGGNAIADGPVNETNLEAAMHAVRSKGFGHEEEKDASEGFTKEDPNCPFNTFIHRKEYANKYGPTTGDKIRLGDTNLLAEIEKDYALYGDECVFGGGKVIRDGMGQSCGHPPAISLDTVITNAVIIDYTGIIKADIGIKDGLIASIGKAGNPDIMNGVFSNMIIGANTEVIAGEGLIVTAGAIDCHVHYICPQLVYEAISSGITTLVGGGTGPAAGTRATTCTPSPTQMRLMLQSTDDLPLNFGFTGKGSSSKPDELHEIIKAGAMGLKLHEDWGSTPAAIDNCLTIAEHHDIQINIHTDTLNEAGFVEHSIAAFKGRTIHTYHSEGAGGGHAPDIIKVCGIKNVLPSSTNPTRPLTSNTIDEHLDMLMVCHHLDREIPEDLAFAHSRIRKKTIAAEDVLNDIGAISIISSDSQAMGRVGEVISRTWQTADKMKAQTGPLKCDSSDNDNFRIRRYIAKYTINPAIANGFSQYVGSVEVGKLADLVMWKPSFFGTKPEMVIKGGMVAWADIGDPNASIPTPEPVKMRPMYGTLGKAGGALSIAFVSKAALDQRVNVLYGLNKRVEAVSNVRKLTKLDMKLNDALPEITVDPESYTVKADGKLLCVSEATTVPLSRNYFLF
Procedure: To test the effectiveness of the acid the following procedure has been used. A synthetic urine is made by combining 2.3 wt % urea and 1.1 wt % sodium chloride. To mimic the presence of bacteria, 200 units of jack bean urease is added to the synthetic urine. Jack bean urease is a readily available form of urease which is suitable for use in this context because useases from most natural sources appear to act similarly. See "Jack Bean Urease (EC 3.5.1.5).8. […] Chem. Soc. 1986, 108, 7124-7125.
This urine is then poured over a sample of bedding or other absorbent material to which the acid has been applied. The treated sample is covered so that any gases produced may accumulate. The presence of ammonia is tested for by using Draeger tubes.
Two 8 oz. polyethylene bottles were charged with 15 g of rice hulls and 15 g of sawdust, respectively. […] The bottles were capped, and incubated in a shaker bath at 37.5° C. […] By contrast, identical bottles not containing citric acid smelled strongly of ammonia.

[2] = smell of the acid itself; cited from earlier work
[3] = test system: Bacillus pasteurii; assay: Ammonia accumulation from synthetic urine on rice hulls with live urease-producing bacteria; conditions: 24 mg acid, 6 g rice hulls, 24 g synthetic urine, 37.5° C., after one day
[4] = test system: rabbit; conditions: cited from earlier work
[5] = cited from earlier work
[6] = test system: urease; conditions: literature statement (Mobley and Hausinger 1989); cited from earlier work

O=C(O)CC(O)(CC(=O)O)C(=O)O [Citric, citric acid]
ammonia smell in capped bottle ([1]; 15 g rice hulls): no ammonia smell could be detected
ammonia smell in capped bottle ([1]; 15 g sawdust): no ammonia smell could be detected
Smell [2]: None
ammonia in bottle measured using a Draeger tube [3]: less than 5 ppm

O=C(O)/C=C/C(=O)O [Fumaric, fumaric acid]
control of accumulation of ammonia ([1]; 6 mg): sufficient to prevent the accumulation of noticeable amounts of ammonia

O=C(O)CC(O)C(=O)O (stereo not drawn) [Malic, malic acid]
control of accumulation of ammonia ([1]; 12 mg): sufficient to prevent the accumulation of noticeable amounts of ammonia
Smell [2]: None
Oral LD50 [4]: 5,000 mg/kg

O=C(O)CC(=O)O [Malonic, malonic]
Smell [2]: None

C/C=C/C=C/C(=O)O [Sorbic, sorbic]
First pKa [5]: 4.8
Smell [2]: None

O=C(O)CCC(=O)O [Succinic, succinic]
Smell [2]: None

CC(=O)O [acetic acid, reference compound]
Smell [2]: strong and unpleasant smell

OB(O)O [boric acid, reference compound]
control of accumulation of ammonia ([1]; 36 mg): not control the accumulation of ammonia
First pKa [5]: 9.1

O=C(O)CC(O)(CC(=O)O)C(=O)O [sodium citrate, reference compound]
control of accumulation of ammonia ([1]; 24 mg): not to control the accumulation of ammonia

phosphoric acid
control of accumulation of ammonia ([1]; 6 mg): sufficient to prevent the accumulation of noticeable amounts of ammonia
inhibition of urease [6]: inhibitor of urease
